Assay results taken from patent US20100234243A1, “PTU COMPOUNDS FOR PROMOTING THE IN VITRO CULTURE OF (HIGHLY PIGMENTED) MELANOCYTES” (L'OREAL, priority 2004, published 2010).

What was measured:
Format in all cases: cell-based, human
[1] = system: melanocytes of phototype VI (African) in reconstructed epidermis; assay: Functionality of PTU-multiplied melanocytes in reconstructed epidermis (DOPA reaction, Fontana-Masson staining); conditions: melanocytes multiplied beforehand with 5 μM or 10 μM PTU, treatment stopped
Experimental: The support is rinsed in the culture medium and then possibly coated with collagen type IV, fibronectin or laminin, for example. After contact at +4° C. overnight, the keratinocytes and the melanocytes of phototype VI (African) multiplied beforehand in the presence of 5 μM or 10 μM PTU, as described in Example 1, are then seeded onto said support. The culture can then be maintained immersed in a medium for keratinocytes in the presence of growth factor. After an incubation time of 3 to 5 days, the skin equivalent of phototype VI (African) undergoing formation is maintained at the air/liquid interface, for example by deposition onto a metal screen or removal of the culture medium present at the surface of an insert. The liquid then preferentially consists of the same nutritive medium as the previous one, but in which the growth factors have been reduced. The incubation then continues until a skin equivalent of phototype VI (African) is obtained. Thus, the incubation continues for a period of from 5 to 30 days, preferentially from 7 to 10 days. The reconstructed skin model of phototype VI (African) thus produced comprises two entities, the support, dermal equivalent, and the epidermal equivalent, which can be physically separated from one another. […] This enzyme is responsible for the oxidation of tyrosine to […] (DOPA) and then for the oxidation of DOPA to DOPA-quinone. […]

[2] = system: melanocytes of phototype VI (African); assay: Determination of the non-cytotoxic concentration of PTU (cell adherence, observed under a microscope); conditions: for adherent cells (viability): primary culture without PTU 80%
Experimental: a) Preparation of a Primary Culture of […] Melanocytes: The melanocytes were obtained from a foreskin of a child according to the following protocol: the skin is cut into fragments of 6 mm and incubated at +4° C. overnight in the presence of 0.25% trypsin. The epidermis is then separated from the dermis in foetal calf serum. The pieces of dermis are scraped in order to recover the basal cells and the melanocytes. The epidermal fragments are then vortexed and the cells are then centrifuged at […] for 5 min. These cells (mixture of melanocytes and keratinocytes) are counted and seeded at a density of 8 to 15×10^6 cells per 75 cm^2 flask, in 18 to 20 ml of M2 medium (Promocell). The melanocytes are then purified according to the following protocol: the culture medium is changed 3 times a week and when the cells are confluent, the flasks are emptied and rinsed once with PBS-Ca^2+Mg^2+. 3 ml of trypsin-EDTA are then added per flask and the flasks are incubated at ambient temperature for 3-4 min: the melanocytes detach whereas the keratinocytes remain attached to the flask. An equivalent volume of M2 medium is added and the detached cells are counted and seeded at a density of 10^6 cells per 75 cm^2 flask, in 18 to 20 ml of M2 medium (Promocell). A primary culture of […] human melanocytes is thus obtained. The trypsinization is repeated when the melanocytes reach confluency (passage 1 et seq.). The melanocytes in the primary culture are 80% viable, i.e., 80% of the melanocytes adhere to the flask. b) Determination of the Non-Cytotoxic Concentration of PTU: Reversible Effect: Part of the primary culture of melanocytes is treated with PTU (Sigma) at the concentrations of 5 μM, 10 μM and 50 μM, at passage 2/3 or preferably from the first passage. The cytotoxicity of the effect of the PTU is evaluated by observing the cells under a microscope.

[3] = system: melanocytes of phototype VI (African); assay: Viability of melanocytes after freezing, thawing and re-culturing; conditions: PTU 10 μM before freezing; non-treated 5%
Experimental: They are then centrifuged and the pellet is resuspended in foetal calf serum+10% DMSO at a concentration of 10^6 cells/ml. The cells are frozen in cryotubes at −80° C. After 24 h, the tubes are transferred into liquid nitrogen at −196° C. For the thawing, the tubes are placed in a water bath at 37° C. and, after rapid thawing, 5 ml of M2 medium are added. The cells are centrifuged at 190 g for 5 min, the pellet is resuspended in M2 medium, and the cells are seeded into a flask and re-cultured under the conditions described in a).

[4] = system: melanocytes of phototype VI (African); assay: Pigmentation (luminance L*) and melanogenesis inhibition in melanocyte cultures
Experimental: The pigmentation of the melanocytes of phototype VI (African), treated with 10 μM PTU or not treated, is measured by the value L* (luminance) of the cultures given by the spectrocolorimeter (FIG. 1). […] Melanin synthesis is decreased during treatment and becomes normal again in the absence of treatment. The IC50 of PTU (i.e., the concentration of PTU for which 50% inhibition of melanogenesis is observed compared with the control on cultures of melanocytes of phototype VI (African), is evaluated from 50 μM to 100 μM.

[5] = system: melanocytes of phototype VI (African); assay: Effect of PTU on proliferation of melanocytes (amount of cells obtained per passage)
[6] = system: epidermis reconstructed from melanocytes of phototype VI (African); assay: Depigmenting activity on reconstructed epidermis (luminance L* by colorimeter); conditions: 100 μM, topical, 3 applications for 5 days; FIG. 3
Experimental: The epidermis reconstructed from melanocytes of phototype VI (African), prepared under the conditions of Example 2, is used to screen the depigmenting activity of active agents.
The test products—arbutin at 100 μM and vitamin C phosphate at 280 μM—are applied topically to said reconstructed epidermis: 3 applications (3 μM/sample) for 5 days from the 5th day of immersion.
Vitamin C phosphate at 280 μM is also applied systemically, i.e., in the culture medium, throughout the duration of the epidermal reconstruction.
The control is the measurement of luminance of the reconstructed epidermis in the absence of test product.
On epidermis reconstructed on BPER (Episkin®), since the dermal support is translucent, it cannot be evaluated directly on the samples. The latter are therefore de-epidermalized and then digested with a solution of proteinase K. The lysates obtained are filtered on DEAE cellulose, which retains the melanin. The luminance is then measured on the filter.
The luminance L*, or lightness, of the sample is measured using a colorimeter. The darker a sample is, the weaker its luminance.

[7] = PTU 5 μM or 10 μM added at passage 2/3, non-treated cells multiply 2-fold
[8] = PTU 10 μM added at passage 4/5, non-treated control factor of 2

Row | SMILES | DOPA assay (tyrosinase DOPA-oxidase activity) of treated melanocytes [1] | integration of treated melanocytes into the reconstructed epidermis [1] | adherent cells (viability) ([2]; PTU 5 μM) | adherent cells (viability) ([2]; PTU 10 μM) | cytotoxicity on melanocytes from African individuals ([2]; PTU 50 μM, most of the cells detach) | viable melanocytes after freezing, thawing and re-culturing [3] | IC50 ([4]; Homo sapiens, Melanocyte, cultures of melanocytes of phototype VI (African), read-out: IC50, concentration for 50% inhibition of melanogenesis compared with the control) | amount of pigment in the melanocytes (luminance L*) ([4]; PTU 10 μM, effect reversible when treatment is stopped, FIG. 1) | amount of pigment excreted by the melanocytes into the medium ([4]; after PTU treatment) | multiplication of melanocytes ([5]; PTU 5 μM instead of 10 μM, treated from the first passage) | factor of stimulation of multiplication at passage 8 [5, 7] | factor of stimulation of multiplication at passage 9 [5, 7] | multiplication factor of treated cells at passage 8 [5, 8] | multiplication factor of treated cells at passage 9 [5, 8] | percentage viability during multiplication ([5]; PTU 10 μM, non-treated control 80%) | increase in luminance versus control [6]
1 | S=C(Nc1ccccc1)Nc1nccs1 [PTU, 1-phenyl-3-(2-thiazolyl)-2-thiourea] | reactive | integrate into the reconstructed epidermis | 95% | 95% | cytotoxic | 80% | 50 to 100 µM | decreases the amount of pigment in the melanocytes | reduced | results of the same order of magnitude | 5 | 15 | 5 | 15 | 95% | 
2 | OC[C@H]1O[C@@H](Oc2ccc(O)cc2)[C@H](O)[C@@H](O)[C@@H]1O [arbutin] |  |  |  |  |  |  |  |  |  |  |  |  |  |  |  | 1.8 points of L*
